In this test the test system is carnitine. In words: Carnitine levels in mouse tissues. The following applies: 250 mg/kg i.p. for 5 consecutive days. The class given is in vivo, mice. On the procedure:
Male ICR mice were injected i.p. with 250 mg/kg DY-65 for 5 consecutive days. Half an hour after the last injection lung, heart, skeletal muscle (femural), brain, liver, kidney and blood were removed, homogenized (100 mg tissue in 200 μl distilled water), centrifuged and filtrated through 30K Microcon® filter. Carnitine analysis was carried out by a commercial kit (BioVision, catalogue number K642-100). n=4 for each group.

Regarding “N-acetyl-Cys-Lys-Met-Cys-NH2 (Ac-CKMC-NH2; cysteine pairing not given here) [DY-65]”, the “increase in the level of carnitine in other tissues” value is given as “about 70%”. Moreover, where the note is “significant elevation”, the “increase in the level of carnitine in some tissues” value is reported as “about 150%”.

(Values after US8802635B2, “Antioxidant, anti-inflammatory, anti-radiation, metal chelating compounds and uses thereof” (Oneday—Biotech And Pharma Ltd., priority 2011, dated 2014).)
